Source: patent publication US20230146233A1, “A CLASS OF POLYCYCLIC COMPOUNDS INHIBITING RNA HELICASE DHX33 AND THE APPLICATION THEREOF” (Shenzhen KeYe Life Technologies, Co., Ltd, priority 2020, published 2023)

test system: U251-MG cells; assay: Half-maximal cell-inhibitory concentration on U251-MG cells (CCK-8); type: cell-based; details: Homo sapiens, U-251, U251-MG cells (DHX33-overexpressing cancer cell strain), 48 hours, read-out: IC50 (half-maximal inhibitory concentrations of compounds on U251-MG cells)
Protocol: U251-MG cells were purchased from the cell bank of the Chinese Academy of Sciences. Cells were cultured in MEM medium containing 10% fetal bovine serum (FBS), 2 mM L-glutammie, streptomycmn and penicillin. The growth conditions were set as follows: a humidified cell incubator (37° C., 5% CO2). Cells were passaged every 3 days and were discarded after 10 passages.
U251-MG cells (a […]-overexpressing cancer cell strain) were seeded on a 96-well plate at 1×10^4 cells/100 μl/well. After the cells were completely attached, the compounds were added to the cell culture medium at a concentration of 5 nM, 10 nM, 25 nM, 50 nM, 100 nM, […], 500 nM, 1000 nM, 2000 nM, […] or 20 μM, and the resulting mixture was uniformly mixed with a multichannel pipette. After the cells were incubated with the compound for 48 hours, CCK-8 reagent (Yeasen Biotechnology (Shanghai) Co., Ltd.) was added to the medium in the 96-well plate in accordance with the standard procedure. After being incubated for 2 hours, the plate was read with a microplate reader (OD=450 nm). The experiment was repeated three times, the inhibition curve of the compound at different concentrations was plotted, and the half-maximal inhibitory concentration (IC50) of the compound was calculated.

`Cc1oc(-n2c(C)cc(/C=C(\C#N)c3nc4ccc(Cl)cc4[nH]3)c2C)c(C#N)c1C` [AB24201, (E)-2-(3-(2-(6-chloro-1H-benzo[d]imidazol-2-yl)-2-cyanovinyl)-2,5-dimethyl-1H-pyrrol-1-yl)-4,5-dimethylfuran-3-carbonitrile] and `Cc1ccc2nc(/C(C#N)=C/c3cc(C)n(-c4oc(C)c(C)c4C#N)c3C)[nH]c2c1` [AB24203, (E)-2-(3-(2-cyano-2-(6-methyl-1H-benzo[d]imidazol-2-yl]vinyl)-2,5-dimethyl-1H-pyrrol-1-yl)-4,5-dimethylfuran-3-carbonitrile] fall in the same range of IC50: 1 to 5 µM for the first, 1 to 5 µM for the second.

First: Cc1oc(-n2c(C)cc(/C=C(\C#N)c3nc4ccc(C(=O)NCCN(C)C)cc4[nH]3)c2C)c(C#N)c1C [AB24206, (E)-2-(1-cyano-2-(1-(3-cyano-4,5-dimethylfuran-2-yl)-2,5-dimethyl-1H-pyrrol-3-yl)vinyl)-N-(2-(dimethylamino)ethyl)-1H-benzo[d]imidazole-6-carboxamide]
Second: CCOC(=O)c1ccc2nc(/C(C#N)=C/c3cc(C)n(-c4oc(C)c(C)c4C#N)c3C)[nH]c2c1 [AB24208, ethyl (E)-2-(1-cyano-2-(1-(3-cyano-4,5-dimethylfuran-2-yl)-2,5-dimethyl-1H-pyrrol-3-yl)vinyl)-1H-benzo[d]imidazole-6-carboxylate]
The IC50 of the first is lower: 1 to 5 µM for the first, 5 to 20 µM for the second.

First: Cc1oc(-n2c(C)cc(/C=C(\C#N)c3nc4ccc(Br)cc4[nH]3)c2C)c(C#N)c1C [AB24213, (E)-2-(3-(2-(6-bromo-1H-benzo[d]imidazol-2-yl)-2-cyanovinyl)-2,5-dimethyl-1H-pyrrol-1-yl)-4,5-dimethylfuran-3-carbonitrile]
Second: Cc1oc(-n2c(C)cc(/C=C(\C#N)c3nc4ccc(N)cc4[nH]3)c2C)c(C#N)c1C [AB24221, (E)-2-(3-(2-(6-amino-1H-benzo[d]imidazol-2-yl)-2-cyanovinyl)-2,5-dimethyl-1H-pyrrol-1-yl)-4,5-dimethylfiran-3-carbonitrile]
The IC50 of the first is lower: 1 to 5 µM for the first, 5 to 20 µM for the second. The first is the more potent here.

Compared with `Cc1oc(-n2c(C)cc(/C=C(\C#N)c3nc4cc(Cl)c(Cl)cc4[nH]3)c2C)c(C#N)c1C` [AB24214, (E)-2-(3-(2-cyano-2-(5,6-dichloro-1H-benzo[d]imidazol-2-yl)vinyl)-2,5-dimethyl-1H-pyrrol-1-yl)-4,5-dimethylfuran-3-carbonitrile], `Cc1oc(-n2c(C)cc(/C=C(\C#N)c3nc4cc(Cl)cc(Cl)c4[nH]3)c2C)c(C#N)c1C` [AB24239] is lower in IC50: 5 to 20 µM for the first, 1 to 5 µM for the second. The second is the more potent here.

First: Cc1oc(-n2c(C)cc(/C=C(\C#N)c3nc4ccc([N+](=O)[O-])cc4[nH]3)c2C)c(C#N)c1C [AB24217, (E)-2-(3-(2-cyano-2-(6-nitro-1H-benzo[d]imidazol-2-yl)vinyl)-2,5-dimethyl-1H-pyrrol-1-yl)-4,5-dimethylfuran-3-carbonitrile]
Second: Cc1oc(-n2c(C)cc(/C=C(\C#N)c3nc4ccc(CO)cc4[nH]3)c2C)c(C#N)c1C [AB24225, (E)-2-(3-(2-cyano-2-(6-(hydroxymethyl)-1H-benzo[d]imidazol-2-yl)vinyl)-2,5-dimethyl-1H-pyrrol-1-yl)-4,5-dimethylfuran-3-carbonitrile]
The IC50 of the first is higher: 5 to 20 µM for the first, 1 to 5 µM for the second.

`Cc1cc(/C=C(\C#N)c2nc3ccccc3[nH]2)c(C)n1-c1ccc(C#N)cc1` [AB24223] and `Cc1ccc(-n2c(C)cc(/C=C(\C#N)c3nc4ccccc4[nH]3)c2C)cc1` [AB24237] fall in the same range of IC50: 5 to 20 µM for the first, 5 to 20 µM for the second.

`Cc1cc(/C=C(\C#N)c2nc3ccccc3[nH]2)c(C)n1-c1ccccc1C#N` [AB24227] and `COc1ccc2nc(/C(C#N)=C/c3cc(C)n(-c4ccccc4C#N)c3C)[nH]c2c1` [AB24307, (E)-2-(3-(2-cyano-2-(6-methoxy-1H-benzo[d]imidazol-2-yl]vinyl)-2,5-dimethyl-1H-pyrrol-1-yl)benzonitrile] fall in the same range of IC50: 5 to 20 µM for the first, 5 to 20 µM for the second.

`COc1cc2nc(/C(C#N)=C/c3cc(C)n(-c4oc(C)c(C)c4C#N)c3C)[nH]c2cc1OC` [AB24229, (E)-2-(3-(2-cyano-2-(5,6-dimethoxy-1H-benzo[d]imidazol-2-yl)vinyl)-2,5-dimethyl-H-pyrrol-1-yl)-4,5-dimethylfuran-3-carbonitrile] and `COc1cc2[nH]c(/C(C#N)=C/c3cc(C)n(-c4oc(C)c(C)c4C#N)c3C)nc2cc1F` [AB24246, (E)-2-(3-(2-cyano-2-(5-fluoro-6-methoxy-1H-benzo[d]imidazol-2-yl]vinyl)-2,5-dimethyl-1H-pyrrol-1-yl)-4,5-dimethylfuran-3-carbonitrile] fall in the same range of IC50: 1 to 5 µM for the first, 1 to 5 µM for the second.

`Cc1cc(/C=C(\C#N)c2nc3ccccc3[nH]2)c(C)n1-c1cccs1` [AB24233] and `Cc1cc(/C=C(\C#N)c2nc3ccccc3[nH]2)c(C)n1-c1ccccn1` [AB24258] fall in the same range of IC50: 5 to 20 µM for the first, 5 to 20 µM for the second.

`COc1cc2[nH]c(/C(C#N)=C/c3cc(C)n(-c4oc(C)c(C)c4C#N)c3C)nc2cc1Br` [AB24266, (E)-2-(3-(2-(5-bromo-6-methoxy-1H-benzo[d]imidazol-2-yl]-2-cyanovinyl)-2,5-dimethyl-1H-pyrrol-1-yl)-4,5-dimethylfuran-3-carbonitrile] and `Cc1oc(-n2c(C)cc(/C=C(\C#N)c3nc4cc5c(cc4[nH]3)OCCO5)c2C)c(C#N)c1C` [AB24287, (E)-2-(3-(2-cyano-2-(6,7-dihydro-1H-[1,4]dioxin[2′,3′: 4,5]benzo[1,2-d]imidazol-2-yl)vinyl)-2,5-dimethyl-1H-pyrrol-1-yl)-4,5-dimethylfuran-3-carbonitrile] fall in the same range of IC50: 1 to 5 µM for the first, 1 to 5 µM for the second.

`CC(=O)Nc1ccc(-n2c(C)cc(/C=C(\C#N)c3nc4ccccc4[nH]3)c2C)cc1` [AB24267] and `Cc1cc(/C=C(\C#N)c2nc3ccccc3[nH]2)c(C)n1-c1csc(C#N)c1` [AB24276] fall in the same range of IC50: 5 to 20 µM for the first, 5 to 20 µM for the second.

First: COC(=O)c1c(-n2c(C)cc(/C=C(\C#N)c3nc4ccccc4[nH]3)c2C)sc(C)c1C [AB24273, methyl (E)-2-(3-(2-(1H-benzo[d]imidazol-2-yl)-2-cyanovinyl)-2,5-dimethyl-1H-pyrrol-1-yl)-4,5-dimethylthiophene-3-carboxylate]
Second: Cc1csc(-n2c(C)cc(/C=C(\C#N)c3nc4ccccc4[nH]3)c2C)c1C#N [AB24277]
The IC50 of the first is lower: 0.1 to 1 µM for the first, 5 to 20 µM for the second.

First: COc1ccc2nc(/C(C#N)=C/c3cc(C)n(-c4oc(C)c(C)c4C#N)c3C)[nH]c2n1 [AB24281, (E)-2-(3-(2-cyano-2-(5-methoxy-3H-imidazo[4,5-b]pyridin-2-yl)vinyl)-2,5-dimethyl-1H-pyrrol-1-yl)-4,5-dimethylfuran-3-carbonitrile]
Second: COc1cnc2[nH]c(/C(C#N)=C/c3cc(C)n(-c4sc(C)c(C)c4C#N)c3C)nc2c1 [AB24301, (E)-2-(3-(2-cyano-2-(6-methoxy-3H-imidazo[4,5-b]pyridin-2-yl)vinyl)-2,5-dimethyl-1H-pyrrol-1-yl)-4,5-dimethylthiophene-3-carbonitrile]
The IC50 of the first is higher: 1 to 5 µM for the first, 0.1 to 1 µM for the second.

`Cc1nn(-c2ccccc2)c(C)c1/C=C(\C#N)c1nc2ccccc2[nH]1` [AB24284, (E)-2-(1H-benzo[d]imidazol-2-yl)-3-(3,5-dimethyl-1-phenyl-1H-pyrazol-4-yl)acrylonitrile] and `Cc1nn(-c2cccc(C(F)(F)F)c2)c(C)c1/C=C(\C#N)c1nc2ccccc2[nH]1` [AB24285, (E)-2-(1H-benzo[d]imidazol-2-yl)-3-(3,5-dimethyl-1-(3-(trifluoromethyl)phenyl)-1H-pyrazol-4-yl)acrylonitrile] fall in the same range of IC50: 5 to 20 µM for the first, 5 to 20 µM for the second.

`COc1cc2nc(/C(C#N)=C/c3cc(C)n(-c4ccncc4Cl)c3C)[nH]c2cn1` [AB24289, (E)-3-(1-(3-chloropyridin-4-yl)-2,5-dimethyl-1H-pyrrol-3-yl)-2-(6-methoxy-3H-imidazo[4,5-c]pyridin-2-yl)acryonitrile] and `COc1cc2nc(/C(C#N)=C/c3cc(C)n(-c4ccncc4C)c3C)[nH]c2cn1` [AB24295, (E)-3-(2,5-dimethyl-1-(3-methylpyridin-4-yl)-1H-pyrrol-3-yl)-2-(6-methoxy-3H-imidazo[4,5-c]pyridin-2-yl)acrylonitrile] fall in the same range of IC50: 1 to 5 µM for the first, 1 to 5 µM for the second.

First: Cc1nn(-c2ccccc2OC(F)(F)F)c(C)c1/C=C(\C#N)c1nc2ccccc2[nH]1 [AB24290, (E)-2-(1H-benzo[d]imidazol-2-yl)-3-(3,5-dimethyl-1-(2-(trifluoromethoxy)phenyl)-1H-pyrazol-4-yl)acrylonitrile]
Second: COc1cc2nc(/C(C#N)=C/c3cc(C)n(-c4ccncc4F)c3C)[nH]c2cn1 [AB24300, (E)-3-(1-(3-fluoropyridin-4-yl)-2,5-dimethyl-1H-pyrrol-3-yl)-2-(6-methoxy-3H-imidazo[4,5-c]pyridin-2-yl)acrylonitrile]
The IC50 of the first is higher: 5 to 20 µM for the first, 1 to 5 µM for the second. The second is the more potent here.

`COc1cncc2nc(/C(C#N)=C/c3cc(C)n(-c4sc(C)c(C)c4C#N)c3C)[nH]c12` [AB24302, (E)-2-(3-(2-cyano-2-(7-methoxy-1H-imidazo[4,5-c]pyridyl-2-yl)vinyl)-2,5-dimethyl-1H-pyrrol-1-yl)-4,5-dimethylthiophene-3-carbonitrile] and `COc1nccc2nc(/C(C#N)=C/c3cc(C)n(-c4sc(C)c(C)c4C#N)c3C)[nH]c12` [AB24309] fall in the same range of IC50: 1 to 5 µM for the first, 1 to 5 µM for the second.

Compound `COc1cc2nc(/C(C#N)=C/c3cc(C)n(-c4sc(C)c(C)c4C#N)c3C)[nH]c2cn1` [AB24308, (E)-2-(3-(2-cyano-2-(6-methoxy-3H-imidazo[4,5-c]pyridin-2-yl)vinyl)-2,5-dimethyl-1H-pyrrol-1-yl)-4,5-dimethylthiophene-3-carbonitrile] has an IC50 of less than 0.1 µM.
